According to patent US9265253B2, “Use of macrocyclic picolinamides as fungicides” (DOW AGROSCIENCES LLC, priority 2013, dated 2016):

These molecules were tested on Mycosphaerella graminicola; Anamorph: Septoria tritici (assay: Leaf Blotch of Wheat (SEPTTR) disease control). Conditions: Zymoseptoria tritici, 24 h, 1 Day Protectant, rate 100 ppm; read-out: SEPTTR 1 DP disease control.
Type: in vivo
Method in brief: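 Yuma wheat, 1st leaf stage; spray to run-off, acetone + 9 vol water/110 ppm Triton X-100; S. tritici spores pre- or post-treatment; dew chamber 100% RH, then greenhouse 20° C. Read: % severity vs untreated → % control.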
`CCOCC(=O)OCOc1c(OC)ccnc1C(=O)N[C@H]1CCC[C@H](Cc2ccc(F)cc2)[C@@H](OC(=O)C2CCCC2)[C@H](C)OC1=O` [Compound F170] was tested, and the pest or weed control at 100 ppm was 80 to 100%.
`COc1ccnc(C(=O)N[C@H]2CCC[C@H](CCC(C)C)[C@@H](OCCCC(F)(F)F)[C@H](C)OC2=O)c1OC(C)=O` [Compound F65] gave a pest or weed control at 100 ppm of 80 to 100%.
For `COc1ccnc(C(=O)N[C@H]2CCC[C@H](CCOc3ccccc3)[C@@H](OCC3CC3)[C@H](C)OC2=O)c1O` [Compound F57], the pest or weed control at 100 ppm was 80 to 100%.
For `CCOCC(=O)OCOc1c(OC)ccnc1C(=O)N[C@H]1CCC[C@H](CC2CCCC2)[C@@H](OCC2CC2)[C@H](C)OC1=O` [Compound F178], the pest or weed control at 100 ppm was 80 to 100%.
With `C=C[C@H]1CCC[C@H](NC(=O)c2nccc(OC)c2O)C(=O)O[C@@H](C)[C@@H]1Oc1ccccc1` [Compound F61] the pest or weed control at 100 ppm was 80 to 100%.
For `COc1ccnc(C(=O)N[C@H]2CCC[C@H](Cc3ccccc3)[C@@H](O)[C@H](C)OC2=O)c1O` [Compound F40], the pest or weed control at 100 ppm was 0 to 80%.
`COc1ccnc(C(=O)N[C@H]2CCC[C@H](Cc3ccccc3)[C@@H](Oc3ccccc3)[C@H](C)OC2=O)c1O` [Compound F20] showed a pest or weed control at 100 ppm of 80 to 100%.

Same assay, conditions: Zymoseptoria tritici, 24 h, 1 Day Protectant, rate 121.5 g/H; read-out: SEPTTR 1 DP disease control
`CCOCC(=O)OCOc1c(OC)ccnc1C(=O)N[C@H]1CCC[C@H](Cc2ccc(F)cc2)[C@@H](OC(=O)C2CCCC2)[C@H](C)OC1=O` [Compound F170] showed a pest or weed control at 121.5 g/ha of 80 to 100%.
`COc1ccnc(C(=O)N[C@H]2CCC[C@H](CCC(C)C)[C@@H](OCCCC(F)(F)F)[C@H](C)OC2=O)c1OC(C)=O` [Compound F65] showed a pest or weed control at 121.5 g/ha of 80 to 100%.
`CCOCC(=O)OCOc1c(OC)ccnc1C(=O)N[C@H]1CCC[C@H](CC2CCCC2)[C@@H](OCC2CC2)[C@H](C)OC1=O` [Compound F178] was tested, and the pest or weed control at 121.5 g/ha was 80 to 100%.

Same assay, conditions: Zymoseptoria tritici, 72 h, 3 Day Curative, rate 100 ppm; read-out: SEPTTR 3 DC disease control
Molecule `CCOCC(=O)OCOc1c(OC)ccnc1C(=O)N[C@H]1CCC[C@H](Cc2ccc(F)cc2)[C@@H](OC(=O)C2CCCC2)[C@H](C)OC1=O` [Compound F170] has a pest or weed control at 100 ppm of 80 to 100%.
`COc1ccnc(C(=O)N[C@H]2CCC[C@H](CCC(C)C)[C@@H](OCCCC(F)(F)F)[C@H](C)OC2=O)c1OC(C)=O` [Compound F65] gave a pest or weed control at 100 ppm of 80 to 100%.
Work on `COc1ccnc(C(=O)N[C@H]2CCC[C@H](CCOc3ccccc3)[C@@H](OCC3CC3)[C@H](C)OC2=O)c1O` [Compound F57] yielded a pest or weed control at 100 ppm of 0 to 80%.
`CCOCC(=O)OCOc1c(OC)ccnc1C(=O)N[C@H]1CCC[C@H](CC2CCCC2)[C@@H](OCC2CC2)[C@H](C)OC1=O` [Compound F178] gave a pest or weed control at 100 ppm of 80 to 100%.
For `COc1ccnc(C(=O)N[C@H]2CCC[C@H](Cc3ccccc3)[C@@H](O)[C@H](C)OC2=O)c1O` [Compound F40], the pest or weed control at 100 ppm was 0 to 80%.
`COc1ccnc(C(=O)N[C@H]2CCC[C@H](Cc3ccccc3)[C@@H](Oc3ccccc3)[C@H](C)OC2=O)c1O` [Compound F20] gave a pest or weed control at 100 ppm of 80 to 100%.

Same assay, conditions: Zymoseptoria tritici, 72 h, 3 Day Curative, rate 121.5 g/H; read-out: SEPTTR 3 DC disease control
With `CCOCC(=O)OCOc1c(OC)ccnc1C(=O)N[C@H]1CCC[C@H](Cc2ccc(F)cc2)[C@@H](OC(=O)C2CCCC2)[C@H](C)OC1=O` [Compound F170] the pest or weed control at 121.5 g/ha was 80 to 100%.
Work on `COc1ccnc(C(=O)N[C@H]2CCC[C@H](CCC(C)C)[C@@H](OCCCC(F)(F)F)[C@H](C)OC2=O)c1OC(C)=O` [Compound F65] yielded a pest or weed control at 121.5 g/ha of 80 to 100%.
With `CCOCC(=O)OCOc1c(OC)ccnc1C(=O)N[C@H]1CCC[C@H](CC2CCCC2)[C@@H](OCC2CC2)[C@H](C)OC1=O` [Compound F178] the pest or weed control at 121.5 g/ha was 80 to 100%.

What follows are molecules tested on Puccinia triticina; Synonym: Puccinia recondite f. Sp. Tritici (assay: Wheat Brown Rust (PUCCRT) disease control). Conditions: Puccinia triticina, topical, 24 h, 1 Day Protectant, rate 100 ppm; read-out: PUCCRT 1 DP disease control.
Type: in vivo
Method in brief: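 Brown rust on first-leaf Yuma wheat: spore inoculation before or after spray application (acetone/Triton X-100 solution, or EC with Trycol in track spray), overnight 100% RH at 22 °C, disease developed at 24 °C. Severity scored 0–100% and converted to percent control against untreated.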
Molecule `CCOCC(=O)OCOc1c(OC)ccnc1C(=O)N[C@H]1CCC[C@H](Cc2ccc(F)cc2)[C@@H](OC(=O)C2CCCC2)[C@H](C)OC1=O` [Compound F170] has a pest or weed control at 100 ppm of 80 to 100%.
Molecule `COc1ccnc(C(=O)N[C@H]2CCC[C@H](CCC(C)C)[C@@H](OCCCC(F)(F)F)[C@H](C)OC2=O)c1OC(C)=O` [Compound F65] has a pest or weed control at 100 ppm of 80 to 100%.
Work on `COc1ccnc(C(=O)N[C@H]2CCC[C@H](CCOc3ccccc3)[C@@H](OCC3CC3)[C@H](C)OC2=O)c1O` [Compound F57] yielded a pest or weed control at 100 ppm of 80 to 100%.
In the case of `CCOCC(=O)OCOc1c(OC)ccnc1C(=O)N[C@H]1CCC[C@H](CC2CCCC2)[C@@H](OCC2CC2)[C@H](C)OC1=O` [Compound F178], the pest or weed control at 100 ppm is reported as 80 to 100%.
With `C=C[C@H]1CCC[C@H](NC(=O)c2nccc(OC)c2O)C(=O)O[C@@H](C)[C@@H]1Oc1ccccc1` [Compound F61] the pest or weed control at 100 ppm was 80 to 100%.
For `COc1ccnc(C(=O)N[C@H]2CCC[C@H](Cc3ccccc3)[C@@H](O)[C@H](C)OC2=O)c1O` [Compound F40], the pest or weed control at 100 ppm was 80 to 100%.
In the case of `COc1ccnc(C(=O)N[C@H]2CCC[C@H](Cc3ccccc3)[C@@H](Oc3ccccc3)[C@H](C)OC2=O)c1O` [Compound F20], the pest or weed control at 100 ppm is reported as 80 to 100%.

Same assay, conditions: Puccinia triticina, topical, 24 h, 1 Day Protectant, rate 121.5 g/H; read-out: PUCCRT 1 DP disease control
In the case of `CCOCC(=O)OCOc1c(OC)ccnc1C(=O)N[C@H]1CCC[C@H](Cc2ccc(F)cc2)[C@@H](OC(=O)C2CCCC2)[C@H](C)OC1=O` [Compound F170], the pest or weed control at 121.5 g/ha is reported as 80 to 100%.
`COc1ccnc(C(=O)N[C@H]2CCC[C@H](CCC(C)C)[C@@H](OCCCC(F)(F)F)[C@H](C)OC2=O)c1OC(C)=O` [Compound F65] gave a pest or weed control at 121.5 g/ha of 80 to 100%.
With `CCOCC(=O)OCOc1c(OC)ccnc1C(=O)N[C@H]1CCC[C@H](CC2CCCC2)[C@@H](OCC2CC2)[C@H](C)OC1=O` [Compound F178] the pest or weed control at 121.5 g/ha was 80 to 100%.

Same assay, conditions: Puccinia triticina, topical, 72 h, 3 Day Curative, rate 100 ppm; read-out: PUCCRT 3 DC disease control
Molecule `CCOCC(=O)OCOc1c(OC)ccnc1C(=O)N[C@H]1CCC[C@H](Cc2ccc(F)cc2)[C@@H](OC(=O)C2CCCC2)[C@H](C)OC1=O` [Compound F170] has a pest or weed control at 100 ppm of 80 to 100%.
Work on `COc1ccnc(C(=O)N[C@H]2CCC[C@H](CCC(C)C)[C@@H](OCCCC(F)(F)F)[C@H](C)OC2=O)c1OC(C)=O` [Compound F65] yielded a pest or weed control at 100 ppm of 80 to 100%.
`COc1ccnc(C(=O)N[C@H]2CCC[C@H](CCOc3ccccc3)[C@@H](OCC3CC3)[C@H](C)OC2=O)c1O` [Compound F57] was tested, and the pest or weed control at 100 ppm was 80 to 100%.
In the case of `CCOCC(=O)OCOc1c(OC)ccnc1C(=O)N[C@H]1CCC[C@H](CC2CCCC2)[C@@H](OCC2CC2)[C@H](C)OC1=O` [Compound F178], the pest or weed control at 100 ppm is reported as 80 to 100%.
Molecule `C=C[C@H]1CCC[C@H](NC(=O)c2nccc(OC)c2O)C(=O)O[C@@H](C)[C@@H]1Oc1ccccc1` [Compound F61] has a pest or weed control at 100 ppm of 0 to 80%.
Work on `COc1ccnc(C(=O)N[C@H]2CCC[C@H](Cc3ccccc3)[C@@H](O)[C@H](C)OC2=O)c1O` [Compound F40] yielded a pest or weed control at 100 ppm of 0 to 80%.
In the case of `COc1ccnc(C(=O)N[C@H]2CCC[C@H](Cc3ccccc3)[C@@H](Oc3ccccc3)[C@H](C)OC2=O)c1O` [Compound F20], the pest or weed control at 100 ppm is reported as 0 to 80%.

Same assay, conditions: Puccinia triticina, topical, 72 h, 3 Day Curative, rate 121.5 g/H; read-out: PUCCRT 3 DC disease control
For `CCOCC(=O)OCOc1c(OC)ccnc1C(=O)N[C@H]1CCC[C@H](Cc2ccc(F)cc2)[C@@H](OC(=O)C2CCCC2)[C@H](C)OC1=O` [Compound F170], the pest or weed control at 121.5 g/ha was 0 to 80%.
`COc1ccnc(C(=O)N[C@H]2CCC[C@H](CCC(C)C)[C@@H](OCCCC(F)(F)F)[C@H](C)OC2=O)c1OC(C)=O` [Compound F65] showed a pest or weed control at 121.5 g/ha of 0 to 80%.
`CCOCC(=O)OCOc1c(OC)ccnc1C(=O)N[C@H]1CCC[C@H](CC2CCCC2)[C@@H](OCC2CC2)[C@H](C)OC1=O` [Compound F178] gave a pest or weed control at 121.5 g/ha of 0 to 80%.
